In patent publication US20220363709A1, “ECTONU[…] METHODS OF USE THEREOF” (priority 2019, published 2022):

Biological target: T1, recombinant CD73 (Homo sapiens, UniProt P21589)
T1 construct: purchased R&D Systems 5795-EN-010
T1 sequence (P21589 27-547 limits assumed): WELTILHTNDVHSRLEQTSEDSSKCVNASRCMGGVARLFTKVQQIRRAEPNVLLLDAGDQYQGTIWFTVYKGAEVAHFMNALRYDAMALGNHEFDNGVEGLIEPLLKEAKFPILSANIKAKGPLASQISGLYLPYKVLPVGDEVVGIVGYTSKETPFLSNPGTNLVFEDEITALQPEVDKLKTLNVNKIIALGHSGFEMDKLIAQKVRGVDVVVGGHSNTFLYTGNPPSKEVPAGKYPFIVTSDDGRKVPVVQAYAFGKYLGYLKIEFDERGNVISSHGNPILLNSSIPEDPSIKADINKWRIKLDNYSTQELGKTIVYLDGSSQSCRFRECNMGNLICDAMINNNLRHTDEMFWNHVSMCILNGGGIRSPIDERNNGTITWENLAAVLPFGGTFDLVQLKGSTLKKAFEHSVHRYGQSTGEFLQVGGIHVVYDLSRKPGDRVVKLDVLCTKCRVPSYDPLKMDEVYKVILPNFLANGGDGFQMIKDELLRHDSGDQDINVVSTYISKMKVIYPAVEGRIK
Assay: Assay 1: Inhibition of the CD73 Enzyme In Vitro
Format: biochemical
Conditions: soluble recombinant CD73 0.5 nM, AMP 50 μM, 30 minutes at room temperature, Malachite Green, absorbance at 630 nm; read-out: Assay 1 CD73 IC50
Experimental: Serial dilutions of test compounds were incubated with recombinant CD73 and AMP in reaction buffer (25 mM Tris HCl pH7.5, 5 mM MgCl2, 50 mM NaCl, 0.25 mM DTT, 0.005% Triton X-100). The final reaction volume was 25 μL and the final concentrations of recombinant CD73 and AMP were 0.5 nM and 50 μM, respectively. […] After 5 minutes at room temperature, absorbance at 630 nm was determined on a microplate spectrophotometer. The concentration of inorganic phosphate was determined using a phosphate standard curve.
ND indicates not determined.

SMILES | IC50 [nM]
Nc1nc(Cl)nc2c1ncn2[C@@H]1O[C@H](COC(Cc2ccc(-c3ccccc3)cc2)(C(=O)O)c2cscn2)[C@@H](O)[C@H]1O (mixture of isomers) [Example 1, 3-([1,1′-biphenyl]-4-yl)-2-(((2R,3S,4R,5R)-5-(6-amino-2-chloro-9H-purin-9-yl)-3,4-dihydroxytetrahydrofuran-2-yl)methoxy)-2-(thiazol-4-yl)propanoic acid] | 99
N#Cc1ccccc1-c1ccc(CC(OC[C@H]2O[C@@H](n3cnc4c(N)nc(Cl)nc43)[C@@H](F)[C@@H]2O)(C(=O)O)c2cscn2)cc1 (mixture of isomers) [Example 12, 2-(((2R3R,4S,5R)-5-(6-amino-2-chloro-9H-purin-9-yl)-4-fluoro-3-hydroxytetrahydrofuran-2-yl)methoxy)-3-(2′-cyano-[1,1′-biphenyl]-4-yl)-2-(thiazol-4-yl)propanoic acid] | 433
Nc1nc(Cl)nc2c1ncn2[C@@H]1O[C@H](COC(Cc2ccc(-c3ccccc3C(=O)O)cc2)(C(=O)O)c2cscn2)[C@@H](O)[C@@H]1F (mixture of isomers) [Example 13, 4′-(2-(((2R,3R,4S,5R)-5-(6-amino-2-chloro-9H-purin-9-yl)-4-fluoro-3-hydroxytetrahydrofuran-2-yl)methoxy)-2-carboxy-2-(thiazol-4-yl)ethyl)-[1,1′-biphenyl]-2-carboxylic acid] | 218
Nc1nc(Cl)nc2c1ncn2[C@@H]1O[C@H](COC(C(=O)O)c2cscn2)[C@@H](O)[C@@H]1F (mixture of isomers) [Example 14, 2-(((2R3R,4S,5R)-5-(6-amino-2-chloro-9H-purin-9-yl)-4-fluoro-3-hydroxytetrahydrofuran-2-yl)methoxy)-2-(thiazol-4-yl)acetic acid] | 22100
Nc1nc(Cl)nc2c1ncn2[C@@H]1O[C@H](COC(Cc2cccc(C(=O)O)c2)(C(=O)O)c2cscn2)[C@@H](O)[C@@H]1F (mixture of isomers) [Example 17, 3-(2-(((2R,3R,4S,5R)-5-(6-amino-2-chloro-9H-purin-9-yl)-4-fluoro-3-hydroxytetrahydrofuran-2-yl)methoxy)-2-carboxy-2-(thiazol-4-yl)ethyl)benzoic acid] | 740
Nc1nc(Cl)nc2c1ncn2[C@@H]1O[C@H](COC(Cc2ccc(-c3ccccc3CC(=O)O)cc2)(C(=O)O)c2cscn2)[C@@H](O)[C@@H]1F (mixture of isomers) [Example 18, 2-(((2R3R,4S,5R)-5-(6-amino-2-chloro-9H-purin-9-yl)-4-fluoro-3-hydroxytetrahydrofuran-2-yl)methoxy)-3-(2′-(carboxymethyl)-[1,1′-biphenyl]-4-yl)-2-(thiazol-4-yl)propanoic acid] | 182
CCCCOc1nc(Cl)nc2c1ncn2[C@@H]1O[C@H](COC(Cc2ccccc2)(C(=O)O)c2cscn2)[C@@H](O)[C@@H]1F (mixture of isomers) [Example 23, 2-(((2R,3R,4S,5R)-5-(6-butoxy-2-chloro-9H-purin-9-yl)-4-fluoro-3-hydroxytetrahydrofuran-2-yl)methoxy)-3-phenyl-2-(thiazol-4-yl)propanoic acid] | 3420
CCCNc1nc(Cl)nc2c1ncn2[C@@H]1O[C@H](COC(Cc2ccccc2)(C(=O)O)c2cscn2)[C@@H](O)[C@@H]1F (mixture of isomers) [Example 24, 2-(((2R,3R4S,5R)-5-(2-chloro-6-(propylamino)-9H-purin-9-yl)-4-fluoro-3-hydroxytetrahydrofuran-2-yl)methoxy)-3-phenyl-2-(thiazol-4-yl)propanoic acid] | 1240
CCCNc1nc(Cl)nc2c1ncn2[C@@H]1O[C@H](COC(Cc2ccc(-c3ccccc3C(=O)O)cc2)(C(=O)O)c2cscn2)[C@@H](O)[C@@H]1F (mixture of isomers) [Example 25, 4′-(2-carboxy-2-(((2R,3R,4S,5R)-5-(2-chloro-6-(propylamino)-9H-purin-9-yl)-4-fluoro-3-hydroxytetrahydrofuran-2-yl)methoxy)-2-(thiazol-4-yl)ethyl)-[1,1′-biphenyl]-2-carboxylic acid] | 382
Nc1nc(Cl)nc2c1ncn2[C@@H]1O[C@H](COC(Cc2ccccc2)(C(=O)O)c2cscn2)[C@@H](O)[C@H]1O (mixture of isomers) [Example 26, 2-(((2R,3S,4R,5R)-5-(6-amino-2-chloro-9H-purin-9-yl)-3,4-dihydroxytetrahydrofuran-2-yl)methoxy)-3-phenyl-2-(thiazol-4-yl)propanoic acid] | 400
Nc1nc(Cl)nc2c1ncn2[C@@H]1O[C@H](COC(Cc2ccc(-c3ccccc3)cc2)(C(=O)O)c2csc(Cl)n2)[C@@H](O)[C@H]1O (mixture of isomers) [Example 27, 3-([1,1′-biphenyl]-4-yl)-2-(((2R,3S,4R,5R)-5-(6-amino-2-chloro-9H-purin-9-yl)-3,4-dihydroxytetrahydrofuran-2-yl)methoxy)-2-(2-chlorothiazol-4-yl)propanoic acid] | 106
Nc1nc(Cl)nc2c1ncn2[C@@H]1O[C@H](COC(Cc2ccccc2)(C(=O)O)c2cc[nH]n2)[C@@H](O)[C@H]1O (mixture of isomers) [Example 32, 2-(((2R,3S,4R,5R)-5-(6-amino-2-chloro-9H-purin-9-yl)-3,4-dihydroxytetrahydrofuran-2-yl)methoxy)-3-phenyl-2-(1H-pyrazol-3-yl)propanoic acid] | 2060
Cc1cc(C(Cc2ccccc2)(OC[C@H]2O[C@@H](n3cnc4c(N)nc(Cl)nc43)[C@H](O)[C@@H]2O)C(=O)O)no1 (mixture of isomers) [Example 37, 2-(((2R,3S,4R,5R)-5-(6-amino-2-chloro-9H-purin-9-yl)-3,4-dihydroxytetrahydrofuran-2-yl)methoxy)-2-(5-methylisoxazol-3-yl)-3-phenylpropanoic acid] | 8730
CNS(=O)(=O)c1ccccc1-c1ccc(CC(OC[C@H]2O[C@@H](n3cnc4c(N)nc(Cl)nc43)[C@H](O)[C@@H]2O)(C(=O)O)c2cscn2)cc1 (mixture of isomers) [Example 38, 2-(((2R,3S,4R,5R)-5-(6-amino-2-chloro-9H-purin-9-yl)-3,4-dihydroxytetrahydrofuran-2-yl)methoxy)-3-(2′-(N-methylsulfamoyl)-[1,1′-biphenyl]-4-yl)-2-(thiazol-4-yl)propanoic acid] | 42
CCN(CC)C(=O)c1ccccc1-c1ccc(CC(OC[C@H]2O[C@@H](n3cnc4c(N)nc(Cl)nc43)[C@H](O)[C@@H]2O)(C(=O)O)c2cscn2)cc1 (mixture of isomers) [Example 45, 2-(((2R,3S,4R,5R)-5-(6-amino-2-chloro-9H-purin-9-yl)-3,4-dihydroxytetrahydrofuran-2-yl)methoxy)-3-(2′-(diethylcarbamoyl)-[1,1′-biphenyl]-4-yl)-2-(thiazol-4-yl)propanoic acid] | 833
Nc1nc(Cl)nc2c1ncn2[C@@H]1O[C@H](COC(Cc2ccc(-c3ccccc3C(=O)O)cc2)(C(=O)O)c2ccsc2)[C@@H](O)[C@H]1O (mixture of isomers) [Example 49, 4′-(2-(((2R,3S,4R,5R)-5-(6-amino-2-chloro-9H-purin-9-yl)-3,4-dihydroxytetrahydrofuran-2-yl)methoxy)-2-carboxy-2-(thiophen-3-yl)ethyl)-[1,1′-biphenyl]-2-carboxylic acid] | 2270
Nc1nc(Cl)nc2c1ncn2[C@@H]1O[C@H](CO[C@](Cc2ccc(-c3ccc(C(=O)O)cc3)cc2)(C(=O)O)c2cscn2)[C@@H](O)[C@H]1O (single isomer, unassigned) [Example 2] | 64
Nc1nc(Cl)nc2c1ncn2[C@@H]1O[C@H](CO[C@@](Cc2ccc(-c3ccc(C(=O)O)cc3)cc2)(C(=O)O)c2cscn2)[C@@H](O)[C@H]1O (single isomer, unassigned) [Example 3] | 1250
N#CCc1ccccc1-c1ccc(C[C@@](OC[C@H]2O[C@@H](n3cnc4c(N)nc(Cl)nc43)[C@H](O)[C@@H]2O)(C(=O)O)c2cscn2)cc1 (single isomer, unassigned) [Example 4] | 35
N#CCc1ccccc1-c1ccc(C[C@](OC[C@H]2O[C@@H](n3cnc4c(N)nc(Cl)nc43)[C@H](O)[C@@H]2O)(C(=O)O)c2cscn2)cc1 (single isomer, unassigned) [Example 5] | 502
Nc1nc(Cl)nc2c1ncn2[C@@H]1O[C@H](CO[C@](Cc2ccc(-c3ccccc3CC(=O)O)cc2)(C(=O)O)c2cscn2)[C@@H](O)[C@H]1O (single isomer, unassigned) [Example 6] | 39
Nc1nc(Cl)nc2c1ncn2[C@@H]1O[C@H](CO[C@@](Cc2ccc(-c3ccccc3CC(=O)O)cc2)(C(=O)O)c2cscn2)[C@@H](O)[C@H]1O (single isomer, unassigned) [Example 7] | 1030
Nc1nc(Cl)nc2c1ncn2[C@@H]1O[C@H](CO[C@](Cc2ccc(-c3ccccc3)cc2)(C(=O)O)c2cscn2)[C@@H](O)[C@@H]1F (single isomer, unassigned) [Example 8] | 241
